From patent US9879050B2, “Substituted urea depsipeptide analogs as activators of the CLPP endopeptidase” (priority 2013, dated 2018)
Converted amounts (≈) assume the structure as drawn.

Assays:
S. aureus USA 300 ΔClpP = experiment: Minimal inhibitory concentration, microbroth dilution; assay type: cell-based, Staphylococcus aureus; settings: ClpP inactivated strain
Experimental: (§1) Minimal inhibitory concentrations (“MICs”) were determined using the microbroth dilution method according to Clinical Laboratory Standards Institute (CLSI; National, C.F. C. L. S., Methods for Dilution Antimicrobial Susceptibility Tests for Bacteria Grow aerobically-Seventh Edition: Approved Standard M7-A7, CLSI, Wayne, Pa., USA, 2008) and were read by visual inspection. Two fold serial dilutions of test compound in 100 μL of the appropriate broth media were first prepared in 96-well round bottom microtiter plates (Nalgene Nunc International, Rochester, N.Y., USA). An equivalent volume (100 μL) of bacterial broth inocula containing approximately 10^5 bacterial cfu/mL was added to each well to give final concentrations of test compound starting at 200 μM. The plates were then incubated aerobically at 37° C. All strains were incubated overnight. After incubations, in all cases the MIC was recorded as the lowest concentration of drug that prevented bacterial growth. The bacterial strains for which MIC was determined as described in Table 4.

Sa-ClpP [1] = molecular target: T1, Sa-ClpP (Staphylococcus aureus, UniProt Q2G036); experiment: ADEP displacement fluorescence polarization assay; assay type: binding, S. aureus; settings: 1 μM Sa-ClpP, 50 nM FP probe ADEP 2591; read-out: ADEP Displacement IC50
T1 construct: made in house; host or cells: E. coli BL21 (DE3)
T1 sequence (Q2G036 whole entry): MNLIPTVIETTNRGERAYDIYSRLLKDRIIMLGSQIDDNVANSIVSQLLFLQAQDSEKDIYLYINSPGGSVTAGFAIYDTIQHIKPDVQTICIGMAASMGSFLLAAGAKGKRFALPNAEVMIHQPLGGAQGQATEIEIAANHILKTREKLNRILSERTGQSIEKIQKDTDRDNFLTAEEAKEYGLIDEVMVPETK
Experimental: A fluorescence polarization (FP) assay was used to determine the activity of the disclosed compounds in displacing an ADEP analogue from ClpP. Briefly, the assay was performed in black 384 well, flat bottom, low volume plates (Greiner Bio-One, Monroe, N.C., catalog #784076). 20 μL of a pre-equilibrated (1 hr, room temperature) master mix (1 μM Sa-ClpP, 2% DMSO (v/v) and 50 nM FP probe in Tris*HCl, pH 8.0)) was pipetted into each well using a Well-Mate (Thermo Scientific, Waltham, Mass.). Sa-ClpP was prepared as described above for the ClpP activation assay. The FP probe was ADEP 2591 (structure shown above). The ADEP 2591 comprises a TAMRA fluorophore linked to a core based on modified ADEP 2378 via a short alkyl linker. Using pin transfer, approximately 0.4 μL (2% v/v DMSO) of each compound or control was added per well. After addition of compounds and controls, plates were allowed to incubate for an additional 120 minutes at room temperature. All assays were performed in triplicate. Polarization was monitored using an EnVision Multilabel reader (Perkin-Elmer, Waltham, Mass.) by exciting the FP probe at 530±25 nm, and monitoring fluorescence intensity of both parallel and perpendicular polarized light at 579±25 nm. Readout was in millipolarization units (mP).
Signal gain and G factors were determined in wells containing 20 μM ADEP 2378, which had been previously verified (data not shown) as containing completely unbound ADEP 2591. Data collected was normalized to values obtained from positive (20 μM ADEP 2378) or negative (DMSO) controls. Curves were fit with non-linear regression using the equation “log [inhibitor]vs. Response-variable slope (four parameters)-symmetrical” in the program Prism 6 (GraphPad Software, La Jolla, Calif. USA, www.graphpad.com). The structures for ADEP 2378 and ADEP 2591 are shown above. ADEP 2378 is (E)-N-((S)-1-(((2R,6S,8aS,14aS,20S,23aS)-2,6-dimethyl-5,8,14,19,23-pentaoxooctadecahydro-1H,5H,14H,19H-pyrido[2,1-i]dipyrrolo[2,1-c:2′,1′-1][1]oxa[4,7,10,13]tetraazacyclohexadecin-20-yl)amino)-1-oxo-3-phenylpropan-2-yl)pent-2-enamide. ADEP 2591 is 5-(3-(3-((6S,9S,11aS,17S,20aS)-6,10-dimethyl-5,8,11,16,20-pentaoxo-17-((S)-2-((E)-pent-2-enamido)-3-phenylpropanamido)hexadecahydro-1H,5H,16H-dipyrrolo[2,1-c:2′,1′-1][1]oxa[4,7,10,13]tetraazacyclohexadecin-9-yl)propyl)thioureido)-2-(6-(dimethylamino)-3-(dimethyliminio)-3H-xanthen-9-yl)benzoate.

Sa-ClpP [2] = molecular target: T1, Sa-ClpP; experiment: ClpP activation, EnzCheck Protease Assay with Bodipy-FL casein (second described method); assay type: biochemical, S. aureus; settings: read-out: ClpP Activation EC50 (converted)
Experimental: Alternatively, the assay was carried out using EnzCheck Protease Assay (Molecular Probes, Catalog #E6638). The assay was performed in black 384 well, flat bottom, low volume plates (Greiner Bio-One, Monroe, N.C., catalog #784076). 10 μL of Tris.HCl buffer, pH 8.0 with 0.01% Triton X-100 was pipetted into each well using a Well-Mate (Thermo Scientific, Waltham, Mass.). 0.4 μL test compounds or controls (2% DMSO v/v) were added to each well using a Biomek FX liquid handling robot (Beckman Coulter, Indianapolis Ind.). After addition of test compounds and controls, 10 μL of master mix containing 2 μM Sa-ClpP and 2 μM substrate (Bodipy-FL labeled casein) in Tris*HCl buffer, pH 8.0 with 0.01% (v/v) Triton X-100, was pipetted into each well. All assays were performed in triplicate, under linear velocity conditions. Increase in fluorescent signal following activation of Sa-ClpP by test compounds and controls was measured over time period of 30 mins using filters with excitation at 485±15 nm and emission at 520±25 nm on a PHERAstar FS Multilabel reader (BMG, Cary, N.C.). […] Data analysis was done by measuring rate of casein degradation over time (slopes). Computed degradation rates (slopes) were normalized to positive (ADEP4) or negative (DMSO) controls. Using nonlinear regression curve fitting EC50 values and % activation were determined using the equation “log [agonist]vs. Response-variable slope (four parameters)-symmetrical” in the program Prism 6 (GraphPad Software, La Jolla, Calif. USA, www.graphpad.com).

S. pyogenes ATCC 700294 = experiment: Minimal inhibitory concentration, microbroth dilution; assay type: cell-based; settings: Streptococcus pyogenes, ATCC700294, read-out: Minimal Inhibitory Concentration S. pyogenes ATCC 700294
Experimental: (§2) Minimal inhibitory concentrations (“MICs”) were determined using the microbroth dilution method according to Clinical Laboratory Standards Institute (CLSI; National, C.F. C. L. S., Methods for Dilution Antimicrobial Susceptibility Tests for Bacteria Grow aerobically-Seventh Edition: Approved Standard M7-A7, CLSI, Wayne, Pa., USA, 2008) and were read by visual inspection. Two fold serial dilutions of test compound in 100 μL of the appropriate broth media were first prepared in 96-well round bottom microtiter plates (Nalgene Nunc International, Rochester, N.Y., USA). […] The plates were then incubated aerobically at 37° C. All strains were incubated overnight. After incubations, in all cases the MIC was recorded as the lowest concentration of drug that prevented bacterial growth. The bacterial strains for which MIC was determined as described in Table 4.

S. pneumoniae R6 = experiment: as above; assay type: cell-based; settings: Streptococcus pneumoniae, R6, read-out: Minimal Inhibitory Concentration S. pneumoniae R6
Experimental: as §2

[3] = Cytotoxicity assay, CellTiter-Glo cell viability; assay type: cell-based; settings: African green monkey; Vero cells, 72 hours; read-out: Cytotoxicity IC50
Experimental: Cytotoxicity was determined by determining the effect of compounds on cell viability. Vero (kidney epithelial cells; ATCC CCL-81) monolayers were trypsinized and 5000 cells/well were seeded (10-15% confluency) into white-wall, flat bottom 96 well microwell plates (Corning) using enriched Dulbecco's Modified Eagle's Medium (Hyclone: DMEM/High Glucose) containing 10% Fetal Bovine Serum (ATCC-30-2020). Plates were incubated overnight at 37° C. in the presence of 5% CO2. Drug-free media was then replaced with media containing serial dilutions of test compound or DMSO carrier. After an additional 72 hours of incubation, viability was indirectly measured using the CellTiter-Glo® Luminescent Cell Viability (Promega) assay. Assay plates were read at peak emission wavelength of 560 nm using a EnVision® Multilabel Plate Reader (Perkin Elmer) or PHERAstar FS Multilabel reader (BMG, Cary, N.C.). […] USA, www.graphpad.com]. For each experiment, compounds were tested in duplicate. IC50 values presented are the range of two biologically independent experiments.

B. subtilis ATCC 23857 = experiment: Minimal inhibitory concentration, microbroth dilution; assay type: cell-based; settings: Bacillus subtilis, ATCC23857, read-out: Minimal Inhibitory Concentration B. subtilis ATCC 23857
Experimental: as §1

S. aureus ATCC 29213 = experiment: as above; assay type: cell-based; settings: Staphylococcus aureus, ATCC29213, read-out: Minimal Inhibitory Concentration S. aureus ATCC 29213
Experimental: as §1

Compound	Minimal Inhibitory Concentration S. aureus USA 300 ΔClpP (S. aureus USA 300 ΔClpP) [µM]	IC50 (Sa-ClpP [1]) [µM]	EC50 (Sa-ClpP [2]) [µM]	MIC (S. pyogenes ATCC 700294) [µM]	MIC (S. pneumoniae R6) [µM]	IC50 at 72 h [3] [µM]	MIC (B. subtilis ATCC 23857) [µM]	MIC (S. aureus ATCC 29213) [µM]
Cc1ccc(NC(=O)N[C@@H](Cc2cc(F)cc(F)c2)C(=O)N[C@@H]2C(=O)N3CCCC3C(=O)N(C)[C@@H](C)C(=O)N[C@@H](C)C(=O)N3CCCC3C(=O)O[C@H]2C)cc1 (stereo partly drawn) [Compound 25, (2S)-3-(3,5-Difluorophenyl)-N-((6S,9S,11aS,17S,18S)-6,9,10,18-Tetramethyl-5,8,11,16,20-Pentaoxohexadecahydro-1H,5H,16H-Dipyrrolo[2,1-C:2′,1′-L][1]Oxa[4,7,10,13]Tetraazacyclohexadecin-17-Yl)-2-(3-(P-Tolyl)Ureido)Propanamide]	200	8.9 ± 0.3	0.48 ± 0.03	1 (≈ 0.768 µg/mL)	0.254 (≈ 0.195 µg/mL)	10.8 ± 1	0.02 (≈ 0.0154 µg/mL)	0.78 (≈ 0.599 µg/mL)
Cc1ccc(NC(=O)N[C@@H](Cc2cc(F)cc(F)c2)C(=O)N[C@H]2COC(=O)C3C[C@H](C)CN3C(=O)[C@H](C)NC(=O)C3CCCCN3C(=O)C3CCCN3C2=O)cc1C (stereo partly drawn) [Compound 48, (S)-3-(3,5-Difluorophenyl)-N-((2S,6S,8aS,14aS,20S,23aS)-2,6-Dimethyl-5,8,14,19,23-Pentaoxooctadecahydro-1H,5H,14H,19H-Pyrido[2,1-I]Dipyrrolo[2,1-C:2′,1′-L][1]Oxa[4,7,10,13]Tetraazacyclohexadecin-20-Yl)-2-(3-(3,4-Dimethylphenyl)Ureido)Propanamide]	200	8.1 ± 0.3	0.7 ± 0.03	3.1 (≈ 2.5 µg/mL)	0.8 (≈ 0.646 µg/mL)	–	0.2 (≈ 0.162 µg/mL)	1.6 (≈ 1.29 µg/mL)
Cc1ccc(NC(=O)N[C@@H](Cc2cc(F)cc(F)c2)C(=O)N[C@H]2COC(=O)C3CC(C)(C)CN3C(=O)[C@H](C)NC(=O)C3CCCCN3C(=O)C3CCCN3C2=O)cc1 (stereo partly drawn) [Compound 49, (S)-3-(3,5-Difluorophenyl)-2-(3-(P-Tolyl)Ureido)-N-((6S,8aS,14aS,20S,23aS)-2,2,6-Trimethyl-5,8,14,19,23-Pentaoxooctadecahydro-1H,5H,14H,19H-Pyrido[2,1-I]Dipyrrolo[2,1-C:2′,1′-L][1]Oxa[4,7,10,13]Tetraazacyclohexadecin-20-Yl)Propanamide]	100	12.7 ± 0.2	2.3 ± 0.2	25 (≈ 20.2 µg/mL)	6.3 (≈ 5.09 µg/mL)	–	0.4 (≈ 0.323 µg/mL)	12.5 (≈ 10.1 µg/mL)
Cc1ccc(NC(=O)N[C@@H](Cc2cc(F)cc(F)c2)C(=O)N[C@H]2COC(=O)C3C[C@H](F)CN3C(=O)[C@H](C)NC(=O)C3CCCCN3C(=O)C3CCCN3C2=O)cc1 (stereo partly drawn) [Compound 50, (S)-3-(3,5-Difluorophenyl)-N-((2S,6S,8aS,14aS,20S,23aS)-2-Fluoro-6-Methyl-5,8,14,19,23-Pentaoxooctadecahydro-1H,5H,14H,19H-Pyrido[2,1-I]Dipyrrolo[2,1-C:2′,1′-L][1]Oxa[4,7,10,13]Tetraazacyclohexadecin-20-Yl)-2-(3-(P-Tolyl)Ureido)Propanamide]	>200	7.66 ± 0.2	0.9 ± 0.07	1.6 (≈ 1.28 µg/mL)	0.8 (≈ 0.638 µg/mL)	–	> 200	3.1 (≈ 2.47 µg/mL)
Cc1ccc(NC(=O)N[C@@H](Cc2cc(F)cc(F)c2)C(=O)N[C@H]2COC(=O)C3C[C@@H](F)CN3C(=O)[C@H](C)NC(=O)C3CCCCN3C(=O)C3CCCN3C2=O)cc1 (stereo partly drawn) [Compound 51, (S)-3-(3,5-Difluorophenyl)-N-((2R,6S,8aS,14aS,20S,23aS)-2-Fluoro-6-Methyl-5,8,14,19,23-Pentaoxooctadecahydro-1H,5H,14H,19H-Pyrido[2,1-I]Dipyrrolo[2,1-C:2′,1′-L][1]Oxa[4,7,10,13]Tetraazacyclohexadecin-20-Yl)-2-(3-(P-Tolyl)Ureido)Propanamide]	>200	9.71 ± 0.3	2.5 ± 0.2	12.5 (≈ 9.97 µg/mL)	6.3 (≈ 5.03 µg/mL)	–	> 200	12.5 (≈ 9.97 µg/mL)
